Data on 15 molecules can be found in patent publication US20160223562A1, “Method for Determining the Concentration of a Peptide” (JPT Peptide Technologies GmbH, priority 2010, published 2016).

Molecules are shown by their SMILES. Square brackets hold non-standard residues; d marks the D form. Peptide text beside a SMILES is read from it. Tyr(3-NO2) = N[C@@H](Cc1ccc(O)c([N+](=O)[O-])c1)C(=O)O

T1 sequence (P00761 9-231): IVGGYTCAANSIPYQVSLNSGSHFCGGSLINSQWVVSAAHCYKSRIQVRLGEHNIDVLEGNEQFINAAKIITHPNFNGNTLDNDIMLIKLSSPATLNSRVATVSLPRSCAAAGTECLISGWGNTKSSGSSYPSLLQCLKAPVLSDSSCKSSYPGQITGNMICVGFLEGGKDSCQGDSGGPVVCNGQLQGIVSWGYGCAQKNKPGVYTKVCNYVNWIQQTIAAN

The assay concerns the target T1, Trypsin (Sus scrofa, UniProt P00761).
T1 construct: purchased Promega Corporation V511
Kind of assay: Trypsin cleavage of N-terminal quantification tag Ac-nitroTyr-SGK- from peptides, LC-MS with UV detection at 350 nm. The settings on record: trypsin protocol of example 9, 24 h, RT. It counts as biochemical. On the procedure: Trypsin Activation: Trypsin (20 μg, sequencing grade modified trypsin, Promega Corporation, Madison, Wis., USA, catalogue no. V511, specific activity 16.965 u/mg) was dissolved in Trypsin resuspension buffer (200 μL, Promega, catalogue no. V542A, ingredient 50 mM acetic acid) and incubated for 15 min at 37° C.
Reduction and alkylation: The peptide (approx. 0.05 mg) was dissolved in 1 M urea and 100 mM fresh ammonium hydrogen carbonate (300 μL). TCEP (Tris(2-carboxyethyl) phosphine hydrochloride, 0.2 M, 7.5 μL, final concentration 5 mM) was added and the solution incubated at 37° C. for 1 h. After addition of iodoacetamide (0.5 M, 6.0 μL, final concentration 10 mM) the solution was incubated at RT in the dark for another 30 min. Digestion: The sample was digested with activated Trypsin solution (10 μL per well, 1.0 μg, resulting enzyme/substrate ratio 1:50) over night at RT. To stop the digestion, HCl (2 M, 8 μL final concentration 50 mM) and TFA (3.2 μL, final concentration 1%, pH<2) were added. Finally, the sample was analyzed by LC-MS at 350 nm.
38 peptides carrying the N-terminal quantification-tag Ac-nitroTyr-SGK-(SEQ ID NO:32) were synthesized by SPOT synthesis (Table 3). The peptide sequences are based on two different amino acid sequences, which in each case contain 19 different amino acids N-terminally attached to lysine (the 20 naturally occurring amino acids except cysteine).
All peptides were subjected to the same trypsin cleavage protocol as described in example 9. It is apparent that the quantification tag is efficiently cleaved (>99%) in nearly all cases.
Consider `CC(=O)N[C@@H](Cc1ccc(O)c([N+](=O)[O-])c1)C(=O)N[C@@H](CO)C(=O)NCC(=O)N[C@@H](CCCCN)C(=O)N[C@H](C(=O)N[C@H](C(=O)N[C@@H](C)C(=O)N[C@@H](CC(C)C)C(=O)N[C@@H](CO)C(=O)N[C@@H](CC(C)C)C(=O)N[C@@H](CC(=O)O)C(=O)N[C@@H](CC(=O)O)C(=O)N[C@H](C(=O)N[C@@H](CCCCN)C(=O)O)C(C)C)C(C)C)[C@@H](C)O` [Peptide 37, Ac-nitroTyr-SGKTVALSLDDV-K-OH] (Ac-[Tyr(3-NO2)]SGKTVALSLDDVK-OH), for which the “Kusebauch 24 h, RT: Percent Cleavage of Tag [by UV350 - Peptide-Tag vs. Tag]” value (“Kusebauch 24 h, RT: Percent Cleavage” for short) was determined as 100.0%.
The value for `CC[C@H](C)[C@H](NC(=O)[C@H](CCCCN)NC(=O)CNC(=O)[C@H](CO)NC(=O)[C@H](Cc1ccc(O)c([N+](=O)[O-])c1)NC(C)=O)C(=O)N[C@H](C(=O)N[C@@H](C)C(=O)N[C@@H](CC(C)C)C(=O)N[C@@H](CO)C(=O)N[C@@H](CC(C)C)C(=O)N[C@@H](CC(=O)O)C(=O)N[C@@H](CC(=O)O)C(=O)N[C@H](C(=O)N[C@@H](CCCCN)C(=O)O)C(C)C)C(C)C` [Peptide 28, Ac-nitroTyr-SGKIVALSLDDV-K-OH] (Ac-[Tyr(3-NO2)]SGKIVALSLDDVK-OH) was 100.0%.
The value for `CC(=O)N[C@@H](Cc1ccc(O)c([N+](=O)[O-])c1)C(=O)N[C@@H](CO)C(=O)NCC(=O)N[C@@H](CCCCN)C(=O)N[C@@H](CC(C)C)C(=O)N[C@H](C(=O)N[C@@H](C)C(=O)N[C@@H](CC(C)C)C(=O)N[C@@H](CO)C(=O)N[C@@H](CC(C)C)C(=O)N[C@@H](CC(=O)O)C(=O)N[C@@H](CC(=O)O)C(=O)N[C@H](C(=O)N[C@@H](CCCCN)C(=O)O)C(C)C)C(C)C` [Peptide 30, Ac-nitroTyr-SGKLVALSLDDV-K-OH] (Ac-[Tyr(3-NO2)]SGKLVALSLDDVK-OH) was 100.0%; that for `CC(=O)N[C@@H](Cc1ccc(O)c([N+](=O)[O-])c1)C(=O)N[C@@H](CO)C(=O)NCC(=O)N[C@@H](CCCCN)C(=O)N[C@@H](Cc1c[nH]c2ccccc12)C(=O)N[C@H](C(=O)N[C@@H](C)C(=O)N[C@@H](CC(C)C)C(=O)N[C@@H](CO)C(=O)N[C@@H](CC(C)C)C(=O)N[C@@H](CC(=O)O)C(=O)N[C@@H](CC(=O)O)C(=O)N[C@H](C(=O)N[C@@H](CCCCN)C(=O)O)C(C)C)C(C)C` [Peptide 39, Ac-nitroTyr-SGKWVALSLDDV-K-OH] (Ac-[Tyr(3-NO2)]SGKWVALSLDDVK-OH) was 100.0%.
The value for `CC(=O)N[C@@H](Cc1ccc(O)c([N+](=O)[O-])c1)C(=O)N[C@@H](CO)C(=O)NCC(=O)N[C@@H](CCCCN)C(=O)N[C@H](C(=O)N[C@H](C(=O)N[C@@H](C)C(=O)N[C@@H](CC(C)C)C(=O)N[C@@H](CO)C(=O)N[C@@H](CC(C)C)C(=O)N[C@@H](CC(=O)O)C(=O)N[C@@H](CC(=O)O)C(=O)N[C@H](C(=O)N[C@@H](CCCCN)C(=O)O)C(C)C)C(C)C)C(C)C` [Peptide 38, Ac-nitroTyr-SGKVVALSLDDV-K-OH] (Ac-[Tyr(3-NO2)]SGKVVALSLDDVK-OH) was 100.0%.
As to `CC(=O)N[C@@H](Cc1ccc(O)c([N+](=O)[O-])c1)C(=O)N[C@@H](CO)C(=O)NCC(=O)N[C@@H](CCCCN)C(=O)N[C@@H](Cc1c[nH]cn1)C(=O)N[C@H](C(=O)N[C@@H](C)C(=O)N[C@@H](CC(C)C)C(=O)N[C@@H](CO)C(=O)N[C@@H](CC(C)C)C(=O)N[C@@H](CC(=O)O)C(=O)N[C@@H](CC(=O)O)C(=O)N[C@H](C(=O)N[C@@H](CCCCN)C(=O)O)C(C)C)C(C)C` [Peptide 27, Ac-nitroTyr-SGKHVALSLDDV-K-OH] (Ac-[Tyr(3-NO2)]SGKHVALSLDDVK-OH), the “Kusebauch 24 h, RT: Percent Cleavage” value is listed as 100.0%.
The same measure for `CC(=O)N[C@@H](Cc1ccc(O)c([N+](=O)[O-])c1)C(=O)N[C@@H](CO)C(=O)NCC(=O)N[C@@H](CCCCN)C(=O)N[C@@H](CC(N)=O)C(=O)N[C@H](C(=O)N[C@@H](C)C(=O)N[C@@H](CC(C)C)C(=O)N[C@@H](CO)C(=O)N[C@@H](CC(C)C)C(=O)N[C@@H](CC(=O)O)C(=O)N[C@@H](CC(=O)O)C(=O)N[C@H](C(=O)N[C@@H](CCCCN)C(=O)O)C(C)C)C(C)C` [Peptide 32, Ac-nitroTyr-SGKNVALSLDDV-K-OH] (Ac-[Tyr(3-NO2)]SGKNVALSLDDVK-OH): 100.0%; for `CC(=O)N[C@@H](Cc1ccc(O)c([N+](=O)[O-])c1)C(=O)N[C@@H](CO)C(=O)NCC(=O)N[C@@H](CCCCN)C(=O)N[C@@H](Cc1ccc(O)cc1)C(=O)N[C@H](C(=O)N[C@@H](C)C(=O)N[C@@H](CC(C)C)C(=O)N[C@@H](CO)C(=O)N[C@@H](CC(C)C)C(=O)N[C@@H](CC(=O)O)C(=O)N[C@@H](CC(=O)O)C(=O)N[C@H](C(=O)N[C@@H](CCCCN)C(=O)O)C(C)C)C(C)C` [Peptide 40, Ac-nitroTyr-SGKYVALSLDDV-K-OH] (Ac-[Tyr(3-NO2)]SGKYVALSLDDVK-OH): 99.1%.
The same measure for `CC(=O)N[C@@H](Cc1ccc(O)c([N+](=O)[O-])c1)C(=O)N[C@@H](CO)C(=O)NCC(=O)N[C@@H](CCCCN)C(=O)N1CCC[C@H]1C(=O)N[C@H](C(=O)N[C@@H](C)C(=O)N[C@@H](CC(C)C)C(=O)N[C@@H](CO)C(=O)N[C@@H](CC(C)C)C(=O)N[C@@H](CC(=O)O)C(=O)N[C@@H](CC(=O)O)C(=O)N[C@H](C(=O)N[C@@H](CCCCN)C(=O)O)C(C)C)C(C)C` [Peptide 33, Ac-nitroTyr-SGKPVALSLDDV-K-OH] (Ac-[Tyr(3-NO2)]SGKPVALSLDDVK-OH): 5.4%; for `CSCC[C@H](NC(=O)[C@H](CCCCN)NC(=O)CNC(=O)[C@H](CO)NC(=O)[C@H](Cc1ccc(O)c([N+](=O)[O-])c1)NC(C)=O)C(=O)N[C@H](C(=O)N[C@@H](C)C(=O)N[C@@H](CC(C)C)C(=O)N[C@@H](CO)C(=O)N[C@@H](CC(C)C)C(=O)N[C@@H](CC(=O)O)C(=O)N[C@@H](CC(=O)O)C(=O)N[C@H](C(=O)N[C@@H](CCCCN)C(=O)O)C(C)C)C(C)C` [Peptide 31, Ac-nitroTyr-SGKMVALSLDDV-K-OH] (Ac-[Tyr(3-NO2)]SGKMVALSLDDVK-OH): 100.0%.
Take `CC(=O)N[C@@H](Cc1ccc(O)c([N+](=O)[O-])c1)C(=O)N[C@@H](CO)C(=O)NCC(=O)N[C@@H](CCCCN)C(=O)N[C@@H](CO)C(=O)N[C@H](C(=O)N[C@@H](C)C(=O)N[C@@H](CC(C)C)C(=O)N[C@@H](CO)C(=O)N[C@@H](CC(C)C)C(=O)N[C@@H](CC(=O)O)C(=O)N[C@@H](CC(=O)O)C(=O)N[C@H](C(=O)N[C@@H](CCCCN)C(=O)O)C(C)C)C(C)C` [Peptide 36, Ac-nitroTyr-SGKSVALSLDDV-K-OH] (Ac-[Tyr(3-NO2)]SGKSVALSLDDVK-OH): the “Kusebauch 24 h, RT: Percent Cleavage” value is recorded as 100.0%.
The same measure for `CC(=O)N[C@@H](Cc1ccc(O)c([N+](=O)[O-])c1)C(=O)N[C@@H](CO)C(=O)NCC(=O)N[C@@H](CCCCN)C(=O)NCC(=O)N[C@H](C(=O)N[C@@H](C)C(=O)N[C@@H](CC(C)C)C(=O)N[C@@H](CO)C(=O)N[C@@H](CC(C)C)C(=O)N[C@@H](CC(=O)O)C(=O)N[C@@H](CC(=O)O)C(=O)N[C@H](C(=O)N[C@@H](CCCCN)C(=O)O)C(C)C)C(C)C` [Peptide 26, Ac-nitroTyr-SGKGVALSLDDV-K-OH] (Ac-[Tyr(3-NO2)]SGKGVALSLDDVK-OH): 99.3%; for `CC(=O)N[C@@H](Cc1ccc(O)c([N+](=O)[O-])c1)C(=O)N[C@@H](CO)C(=O)NCC(=O)N[C@@H](CCCCN)C(=O)N[C@@H](CCCNC(=N)N)C(=O)N[C@H](C(=O)N[C@@H](C)C(=O)N[C@@H](CC(C)C)C(=O)N[C@@H](CO)C(=O)N[C@@H](CC(C)C)C(=O)N[C@@H](CC(=O)O)C(=O)N[C@@H](CC(=O)O)C(=O)N[C@H](C(=O)N[C@@H](CCCCN)C(=O)O)C(C)C)C(C)C` [Peptide 35, Ac-nitroTyr-SGKRVALSLDDV-K-OH] (Ac-[Tyr(3-NO2)]SGKRVALSLDDVK-OH): 100.0%; for `CC(=O)N[C@@H](Cc1ccc(O)c([N+](=O)[O-])c1)C(=O)N[C@@H](CO)C(=O)NCC(=O)N[C@@H](CCCCN)C(=O)N[C@@H](CCC(=O)O)C(=O)N[C@H](C(=O)N[C@@H](C)C(=O)N[C@@H](CC(C)C)C(=O)N[C@@H](CO)C(=O)N[C@@H](CC(C)C)C(=O)N[C@@H](CC(=O)O)C(=O)N[C@@H](CC(=O)O)C(=O)N[C@H](C(=O)N[C@@H](CCCCN)C(=O)O)C(C)C)C(C)C` [Peptide 24, Ac-nitroTyr-SGKEVALSLDDV-K-OH] (Ac-[Tyr(3-NO2)]SGKEVALSLDDVK-OH): 100.0%.
The value for `CC(=O)N[C@@H](Cc1ccc(O)c([N+](=O)[O-])c1)C(=O)N[C@@H](CO)C(=O)NCC(=O)N[C@@H](CCCCN)C(=O)N[C@@H](Cc1ccccc1)C(=O)N[C@H](C(=O)N[C@@H](C)C(=O)N[C@@H](CC(C)C)C(=O)N[C@@H](CO)C(=O)N[C@@H](CC(C)C)C(=O)N[C@@H](CC(=O)O)C(=O)N[C@@H](CC(=O)O)C(=O)N[C@H](C(=O)N[C@@H](CCCCN)C(=O)O)C(C)C)C(C)C` [Peptide 25, Ac-nitroTyr-SGKFVALSLDDV-K-OH] (Ac-[Tyr(3-NO2)]SGKFVALSLDDVK-OH) was 100.0%.
